# Assay results taken from the supplement of paper PMC10307832.
# Assays:
# Assay in all cases: relative viability (nuclei count vs DMSO), 5 days (fraction); higher = more cells survive
# Dabrafenib + Luminespib = compound: CC(C)(C)c1nc(-c2cccc(NS(=O)(=O)c3c(F)cccc3F)c2F)c(-c2ccnc(N)n2)s1 [Dabrafenib] + CCNC(=O)c1noc(-c2cc(C(C)C)c(O)cc2O)c1-c1ccc(CN2CCOCC2)cc1 [Luminespib] (partner 0.01 µM)
# How it was run: (§1)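 For relative viability, nuclei counts in treated wells were divided by those in vehicle wells. Lung cancer cell lines had been pin-tool dosed in 1536-well plates the day after seeding and cultured for 5 days, then fixed and stained in one step (final 0.05% Triton X-100, 1% formaldehyde, 1 ug/ml Hoechst) and imaged at 4×. Doses were one drug alone or a fixed anchor-drug dose plus five library-drug doses (not always all listed) in √10 steps, and values are duplicate-plate medians.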
# Dabrafenib + Foretinib = compound: CC(C)(C)c1nc(-c2cccc(NS(=O)(=O)c3c(F)cccc3F)c2F)c(-c2ccnc(N)n2)s1 [Dabrafenib] + COc1cc2c(Oc3ccc(NC(=O)C4(C(=O)Nc5ccc(F)cc5)CC4)cc3F)ccnc2cc1OCCCN1CCOCC1 [Foretinib] (partner 0.25 µM)
# How it was run: as §1
# Dabrafenib + OSI-027 = compound: CC(C)(C)c1nc(-c2cccc(NS(=O)(=O)c3c(F)cccc3F)c2F)c(-c2ccnc(N)n2)s1 [Dabrafenib] + COc1cccc2cc(-c3nc([C@H]4CC[C@H](C(=O)O)CC4)n4ncnc(N)c34)[nH]c12 [OSI-027] (partner 0.5 µM)
# How it was run: as §1
# Dabrafenib + Pemetrexed = compound: CC(C)(C)c1nc(-c2cccc(NS(=O)(=O)c3c(F)cccc3F)c2F)c(-c2ccnc(N)n2)s1 [Dabrafenib] + Nc1nc2[nH]cc(CCc3ccc(C(=O)N[C@@H](CCC(=O)O)C(=O)O)cc3)c2c(=O)[nH]1 [Pemetrexed] (partner 0.2 µM)
# How it was run: as §1
# VX-702 + Phenformin = compound: NC(=O)c1ccc(N(C(N)=O)c2c(F)cccc2F)nc1-c1ccc(F)cc1F [VX-702] + N=C(N)NC(=N)NCCc1ccccc1 [Phenformin] (partner 250 µM)
# How it was run: as §1
# VX-702 + Pemetrexed = compound: NC(=O)c1ccc(N(C(N)=O)c2c(F)cccc2F)nc1-c1ccc(F)cc1F [VX-702] + Nc1nc2[nH]cc(CCc3ccc(C(=O)N[C@@H](CCC(=O)O)C(=O)O)cc3)c2c(=O)[nH]1 [Pemetrexed] (partner 0.2 µM)
# How it was run: as §1
cell line,measurement,setting,value
SW 900,relative viability,Dabrafenib + Luminespib; first compound 0.009487 µM,0.186
same,relative viability,Dabrafenib + Luminespib; first compound 0.03 µM,0.166
same,relative viability,Dabrafenib + Luminespib; first compound 0.3 µM,0.214
same,relative viability,Dabrafenib + Foretinib; first compound 0.009487 µM,0.905
same,relative viability,Dabrafenib + Foretinib; first compound 0.03 µM,0.788
same,relative viability,Dabrafenib + Foretinib; first compound 0.3 µM,0.856
same,relative viability,Dabrafenib + OSI-027; first compound 0.009487 µM,0.619
same,relative viability,Dabrafenib + OSI-027; first compound 0.03 µM,0.466
same,relative viability,Dabrafenib + OSI-027; first compound 0.3 µM,0.679
same,relative viability,Dabrafenib + Pemetrexed; first compound 0.009487 µM,0.494
same,relative viability,Dabrafenib + Pemetrexed; first compound 0.09487 µM,0.477
same,relative viability,Dabrafenib + Pemetrexed; first compound 0.3 µM,0.45
same,relative viability,VX-702 + Phenformin; first compound 0.02 µM,0.634
same,relative viability,VX-702 + Phenformin; first compound 0.2 µM,0.585
same,relative viability,VX-702 + Phenformin; first compound 0.6325 µM,0.869
same,relative viability,VX-702 + Phenformin; first compound 2 µM,0.546
same,relative viability,VX-702 + Pemetrexed; first compound 0.02 µM,0.51
same,relative viability,VX-702 + Pemetrexed; first compound 0.2 µM,0.488
same,relative viability,VX-702 + Pemetrexed; first compound 0.6325 µM,0.474
same,relative viability,VX-702 + Pemetrexed; first compound 2 µM,0.464
